Each structure is given as a SMILES string.

Data set [1] deals with t(4;11)-positive ALL cells. Type of data set: cell-based, human. The following applies: for therapeutic index and specificity towards t(4;11)-positive ALL cells: SEM, RS4;11, MLL-AF4 patient cells versus normal bone marrows, FIG. 6. An excerpt:
VPA, D. romidepsin, E. MS-275. Error bars represent standard errors of the mean (SEM).

The test system of data set [2] is SEM cell line. The data set can be described thus: Proto-oncogene mRNA expression by quantitative real-time PCR after exposure to HDAC inhibitors, SEM. Type of data set: cell-based, human. On the procedure:
(§1) FIGS. 8A, 8B, 8C, 8D, 8E, 8F and 8G show relative proto-oncogene mRNA expression after exposure to HDAC inhibitors in SEM cell line. FIGS. 8AA, 8BB, 8CC, 8DD, 8EE, 8FF and 8GG show relative proto-oncogene mRNA expression after exposure to HDAC inhibitors in RS4;11 cell line. mRNA expression levels of the proto-oncogenes A. RAN, B. SET, C. […] For RUNX1, PARK7, DIAPH1 and HOXA9 data after 24 hours exposure are presented as well (hatch fill). Expression levels in SEM or RS4;11 were set to 100%.
(§2) Total RNA was reverse transcribed and the obtained cDNA was used to quantify mRNA expression by using quantitative real-time PCR analysis as described in Stam et al., Haematologica 92(11):1565-1568, 2007). […] Per experiment, samples were analyzed in duplicate and all experiments were conducted twice. […]
(§3) To explore the mechanism of action of HDAC inhibitors on induced leukemic cell death in MLL-rearranged ALL, the t(4;11)-positive ALL cell lines SEM and RS4;11 were exposed to various concentrations of TSA, SAHA, VPA, MS-275 and romidepsin for 6, 24 or 48 hours. During these exposures, cell viability was monitored by trypan blue exclusion (FIG. 7). Quantitative real-time PCR was used to determine the mRNA expression levels of MYC, SET, RUNXI, RAN, HOXA9, DIAPHI and PARK7 in the cell lines SEM and RS4;11 during exposure to the different HDAC inhibitors. […]

Data set [3] deals with RS4;11 cell line. The data set can be described thus: Proto-oncogene mRNA expression by quantitative real-time PCR after exposure to HDAC inhibitors, RS4;11. The class given is cell-based, human. The following applies: RS4;11, mRNA by quantitative real-time PCR. The method, then: as §1, §2, §3
(In general: In qPCR the cycle at which signal appears reflects the starting amount.)

Data set [4] concerns healthy hematopoietic bone marrow cells.

As to `Nc1ccccc1NC(=O)c1ccc(CNC(=O)OCc2cccnc2)cc1` [MS-275], in data set [1], the “therapeutic index and specificity towards t(4;11)-positive ALL cells” value is “high therapeutic index and a preferred specificity towards targeting t(4;11)-positive ALL cells”.

As to `O=C(CCCCCCC(=O)Nc1ccccc1)NO` [Vorinostat], the “expression of the selected proto-oncogenes” value in data set [2] and in data set [3] was “consistently repressed most of the selected proto-oncogenes” throughout.

In the case of `C/C=C1\NC(=O)[C@H]2CSSCC/C=C/[C@H](CC(=O)N[C@H](C(C)C)C(=O)N2)OC(=O)[C@H](C(C)C)NC1=O` [romidepsin, (1S,4S,7Z,10S,16E,21R)-7-ethylidene-4,21-bis(1-methylethyl)-2-oxa-12,13-dithia-5,8,20,23-tetrazabicyclo[8.7.6]tricos-16-ene-3,6,9,19,22-pentone], the “therapeutic index and specificity towards t(4;11)-positive ALL cells” value in data set [1] was “high therapeutic index and a preferred specificity towards targeting t(4;11)-positive ALL cells”.

With `CC(/C=C/C(=O)NO)=C\[C@@H](C)C(=O)c1ccc(N(C)C)cc1` [trichostatin A], in data set [1], the “in vitro cytotoxicity on the leukemic cell population” value is “consistent eradication of the entire leukemic cell population”; the “therapeutic index and specificity towards t(4;11)-positive ALL cells” value is “high therapeutic index and a preferred specificity towards targeting t(4;11)-positive ALL cells”. In addition, the “expression of the selected proto-oncogenes” value in data set [2] is “consistently repressed most of the selected proto-oncogenes”. In addition, the “expression of the selected proto-oncogenes” value in data set [3] was “consistently repressed most of the selected proto-oncogenes”. Moreover, in data set [4], the “effect on healthy hematopoietic bone marrow cells” value is “harmless for healthy hematopoietic bone marrow cells”.

The values above are taken from US8859502B2, “Therapy for MLL-rearranged leukemia” (Celgene Corporation, priority 2010, dated 2014).
